Measurements as given in patent US20230295201A1 (Gilead Sciences, Inc., priority 2020, published 2023).
Like-named read-outs stand apart in the source and are kept apart here.

Columns and labels:
[1] = system: RSV A2; test: RSV NHBE EC50 (RSV A2 antiviral assay in normal human bronchial epithelial cells); format: cell-based; conditions: read-out: RSV NHBE EC50
Protocol: Normal human bronchial epithelial (NHBE) cells were purchased from Lonza (Walkersville, MD, Cat #CC-2540) and cultured in Bronchial Epithelial Growth Media (BEGM) (Lonza, Walkersville, MD, Cat #CC-3170). The cells were passaged 1-2 times per week to maintain <80% confluency. The NHBE cells were discarded after 6 passages in culture.
To conduct the RSV A2 antiviral assay, NHBE cells were plated in 96-well plates at a density of 7,500 cells per well in BEGM and allowed to attach overnight at 37° C. Following attachment, 100 μL of cell culture media was removed and 3-fold serially diluted compound was added using a Hewlett-Packard D300 Digital Dispenser. The final concentration of DMSO was normalized to 0.05%. Following compound addition, the NHBE cells were infected by the addition of 100 μL of RSV A2 at a titer of 1×10^4.5 tissue culture infectious doses/mL in BEGM and then incubated at 37° C. for 4 days. […] The mixtures were incubated for 10 minutes at 25° C., and the luminescence signal was quantified on an Envision luminescence plate reader.

[2] = system: RSV strain A2; test: RSV HEp-2 EC50 (infectious cytopathic cell protection assay); format: cell-based; conditions: read-out: RSV HEp-2 EC50
Protocol: Antiviral activity against RSV is determined using an infectious cytopathic cell protection assay in HEp-2 cells. In this assay, compounds inhibiting viral infection and/or replication produce a cytoprotective effect against the virus-induced cell killing that can be quantified using a cell viability reagent. The techniques used here are novel adaptations of methods described in published literature (Chapman et al., Antimicrob Agents Chemother. 2007, 51(9):3346-53.)
HEp-2 cells are obtained from ATCC (Manassas, VI) and maintained in MEM media supplemented with 10% fetal bovine serum and penicillin/streptomycin. Cells are passaged twice a week and kept at subconfluent stage. Commercial stock of RSV strain A2 (Advanced Biotechnologies, Columbia, MD) is titered before compound testing to determine the appropriate dilution of the virus stock that generates desirable cytopathic effect in HEp-2 cells.
For antiviral tests, HEp-2 cells are grown in large cell culture flasks to near confluency but not fully so. The compounds to be tested are prediluted in DMSO in 384-well compound dilution plates, either in an 8 or 40 sample per plate standardized dose response format. 3-fold serial dilution increments of each test compound are prepared in the plates and test samples are transferred via acoustic transfer apparatus (Echo, Labcyte) at 100 nL per well into cell culture assay 384-well plates. Each compound dilution is transferred in single or quadruplicate samples into dry assay plates, which are stored until assay is ready to go. The positive and negative controls are laid out in opposite on ends of the plate in vertical blocks (1 column).
Subsequently, an infectious mixture is prepared using an appropriate dilution of virus stock previously determined by titration with cells at a density of 50,000/ml and 20 µL/well is added to test plates w/compounds via automation (uFlow, Biotek). Each plate includes negative and positive controls (16 replicates each) to create 0% and 100% virus inhibition standards, respectively. Following the infection with RSV, testing plates are incubated for 4 days in a 37° C. cell culture incubator. After the incubation, a cell viability reagent, Cell TiterGlo (Promega, Madison, WI) is added to the assay plates, which are incubated briefly, and a luminescent readout is measured (Envision, Perkin Elmer) in all the assay plates. The RSV-induced cytopathic effect, percentage inhibition, is determined from the levels of remaining cell viability. […] Various potent anti-RSV tool compounds are used as positive controls for antiviral activity.

[3] = human respiratory syncytial virus, NHBE, 96 h, NHBE cells, RSV A2, 4 days
[4] = human respiratory syncytial virus, HEp-2, 96 h, HEp-2 cells, RSV A2, 4 days
[5] = human respiratory syncytial virus, NHBE, 96 h
[6] = human respiratory syncytial virus, 96 h, HEp-2 cells, RSV A2, 4 days
[7] = human respiratory syncytial virus, 96 h, NHBE cells, RSV A2, 4 days

Row | SMILES | EC50 [2, 4] | EC50 ([2]; HEp-2 cells, RSV A2, 4 days) | EC50 ([1]; NHBE cells, RSV A2, 4 days) | also measured
1 | COCCCOC(=O)[C@H](C)NP(=O)(OC[C@@]1(C#N)O[C@@H](c2ccc3c(N)ncnn23)[C@H](O)[C@@H]1O)Oc1ccccc1 (mixture of isomers) [Example 58, 3-Methoxypropyl ((((2R,3S,4R,5S)-5-(4-aminopyrrolo[2,1-f][1,2,4]triazin-7-yl)-2-cyano-3,4-dihydroxytetrahydrofuran-2-yl)methoxy)(phenoxy)phosphoryl)-L-alaninate] | – | – | – | EC50 [1, 3]: 917 nM
2 | C[C@H](NP(=O)(OC[C@@]1(C#N)O[C@@H](c2ccc3c(N)ncnn23)[C@H](O)[C@@H]1O)Oc1ccccc1)C(=O)O[C@H]1CCOC1 (mixture of isomers) [Example 64, (S)-Tetrahydrofuran-3-yl ((((2R,3S,4R,5S)-5-(4-aminopyrrolo[2,1-f][1,2,4]triazin-7-yl)-2-cyano-3,4-dihydroxytetrahydrofuran-2-yl)methoxy)(phenoxy)phosphoryl)-L-alaninate] | 350 nM | – | – | EC50 [1, 3]: 3500 nM
3 | CCC(CC)COC(=O)[C@H](CC(C)C)NP(=O)(OC[C@@]1(C#N)O[C@@H](c2ccc3c(N)ncnn23)[C@H](O)[C@@H]1O)Oc1ccccc1 (mixture of isomers) [Example 127, (2S)-2-ethylbutyl 2-(((((2R,3S,4R,5S)-5-(4-aminopyrrolo[2,1-f][1,2,4]triazin-7-yl)-2-cyano-3,4-dihydroxytetrahydrofuran-2-yl)methoxy)(phenoxy)phosphoryl)amino)-4-methylpentanoate] | 1730 nM | – | – | EC50 [1, 3]: 434 nM
4 | CC(C)(C)C(=O)OCCNP(=O)(OCC1(C#N)OC(c2ccc3c(N)ncnn23)C(O)C1O)Oc1ccccc1 (single isomer, unassigned) [Example 13] | – | 93 nM | 30 nM | –
5 | C[C@H](N[P@@](=O)(OC[C@@]1(C#N)O[C@@H](c2ccc3c(N)ncnn23)[C@H](O)[C@@H]1O)Oc1ccccc1)C(=O)O[C@H]1CC[C@H](C(C)(C)C)CC1 (single isomer, unassigned) [Example 23] | 207 nM | – | – | EC50 [1, 3]: 34 nM
6 | COC(=O)[C@H](C)NP(=O)(OC[C@@]1(C#N)O[C@@H](c2ccc3c(N)ncnn23)[C@H](O)[C@@H]1O)Oc1ccc(C[C@H](N)C(=O)OC)cc1 (single isomer, unassigned) [Example 63] | – | 4070 nM | > 5000 nM | –
7 | CCOCCOCCOC(=O)[C@H](C)NP(=O)(OC[C@@]1(C#N)O[C@@H](c2ccc3c(N)ncnn23)[C@H](O)[C@@H]1O)Oc1ccccc1 (single isomer, unassigned) [Example 75] | 1260 nM | – | – | –
8 | CCC(CC)COC(=O)[C@@H](C)NP(=O)(OC[C@@]1(C#N)O[C@@H](c2ccc3c(N)ncnn23)[C@H](O)[C@@H]1O)Oc1ccccc1 (single isomer, unassigned) [Example 83] | – | 5300 nM | 953 nM | –
9 | CC[C@H](NP(=O)(OC[C@@]1(C#N)O[C@@H](c2ccc3c(N)ncnn23)[C@H](O)[C@@H]1O)Oc1ccccc1)C(=O)OC1CCCC1 (single isomer, unassigned) [Example 110] | – | 281 nM | 339 nM | –
10 | CCC(CC)COC(=O)[C@H](CC(C)C)NP(=O)(OC[C@@]1(C#N)O[C@@H](c2ccc3c(N)ncnn23)[C@H](O)[C@@H]1O)Oc1ccccc1 (single isomer, unassigned) [Example 128] | – | 1870 nM | 164 nM | –
11 | C[C@H](NP(=O)(OC[C@@]1(C#N)O[C@@H](c2ccc3c(N)ncnn23)[C@H](O)[C@@H]1O)Oc1ccccc1)C(=O)O[C@H]1CC[C@@H](C(F)(F)F)CC1 (single isomer, unassigned) [Example 179] | – | 591 nM | > 4800 nM | –
12 | C[C@H](NP(=O)(OC[C@@]1(C#N)O[C@@H](c2ccc3c(N)ncnn23)[C@H](O)[C@@H]1O)Oc1ccccc1)C(=O)OCC(C)(C)C(F)(F)F (single isomer, unassigned) [Example 261] | 34 nM | – | – | –
13 | CCOC(=O)[C@H](C)NP(=O)(OC[C@@]1(C#N)O[C@@H](c2ccc3c(N)ncnn23)[C@H](O)[C@@H]1O)Oc1ccc(C(C)(C)C)cc1 (single isomer, unassigned) [Example 264] | – | 41 nM | – | –
14 | COC(=O)[C@H](C)NP(=S)(OC[C@@]1(C#N)O[C@@H](c2ccc3c(N)ncnn23)[C@H](O)[C@@H]1O)Oc1ccccc1 (stereo partly drawn) [Example 71, methyl ((((2R,3S,4R,5S)-5-(4-aminopyrrolo[2,1-f][1,2,4]triazin-7-yl)-2-cyano-3,4-dihydroxytetrahydrofuran-2-yl)methoxy)(phenoxy)phosphorothioyl)-L-alaninate] | – | – | – | EC50 ([2]; human respiratory syncytial virus, HEp-2, 96 h): 3140 nM; EC50 [1, 5]: > 5000 nM
15 | C[C@H](N[P@@](=O)(OC[C@@]1(C#N)O[C@@H](c2ccc3c(N)ncnn23)[C@H](O)[C@@H]1O)Oc1ccccc1)C(=O)OCC(C)(C)C [Example 93] | – | 2840 nM | 85 nM | –
16 | C[C@H](NP(=O)(OC[C@@]1(C#N)O[C@@H](c2ccc3c(N)ncnn23)[C@H](O)[C@@H]1O)Oc1ccccc1)C(=O)NC1CCCCC1 (stereo partly drawn) [Example 138, ((2R,3S,4R,5S)-5-(4-aminopyrrolo[2,1-f][1,2,4]triazin-7-yl)-2-cyano-3,4-dihydroxytetrahydrofuran-2-yl)methyl phenyl ((S)-1-(cyclohexylamino)-1-oxopropan-2-yl)phosphoramidate] | 38500 nM | – | – | EC50 [1, 3]: > 5000 nM
17 | CC1CCC(OC(=O)C(C)NP(=O)(OCC2(C#N)OC(c3ccc4c(N)ncnn34)C(O)C2O)Oc2ccccc2)CC1 (stereo not shown) [Example 144] | – | 614 nM | 65 nM | –
18 | CC[C@H](NP(=O)(OC[C@@]1(C#N)O[C@@H](c2ccc3c(N)ncnn23)[C@H](O)[C@@H]1O)Oc1ccccc1)C(=O)OCC(C)(C)C (stereo partly drawn) [Example 157, neopentyl (2S)-2-(((((2R,3S,4R,5S)-5-(4-aminopyrrolo[2,1-f][1,2,4]triazin-7-yl)-2-cyano-3,4-dihydroxytetrahydrofuran-2-yl)methoxy)(phenoxy)phosphoryl)amino)butanoate] | 972 nM | – | – | EC50 [1, 3]: 163 nM
19 | CCC(CC)COC(=O)[C@H](C)NP1(=O)OC[C@@]2(C#N)O[C@@H](c3ccc4c(N)ncnn34)[C@H](O)[C@@H]2O1 (stereo partly drawn) [Example 169, 2-ethylbutyl ((4aR,6S,7S,7aS)-6-(4-aminopyrrolo[2,1-f][1,2,4]triazin-7-yl)-4a-cyano-7-hydroxy-2-oxidotetrahydro-4H-furo[3,2-d][1,3,2]dioxaphosphinin-2-yl)-L-alaninate] | – | – | – | EC50 [2, 6]: 524 nM; EC50 [1, 7]: 965 nM
20 | C[C@H](NP(=O)(O)OC[C@@]1(C#N)O[C@@H](c2ccc3c(N)ncnn23)[C@H](O)[C@@H]1O)C(=O)OC1CCCCC1 [Example 202, cyclohexyl ((((2R,3S,4R,5S)-5-(4-aminopyrrolo[2,1-f][1,2,4]triazin-7-yl)-2-cyano-3,4-dihydroxytetrahydrofuran-2-yl)methoxy)(hydroxy)phosphoryl)-L-alaninate] | – | – | – | EC50 [2, 6]: 7050 nM; EC50 [1, 7]: > 2950 nM
21 | CCOC(=O)c1ccccc1OP1(=O)OC[C@@]2(C#N)O[C@@H](c3ccc4c(N)ncnn34)[C@H](O)[C@@H]2O1 (stereo partly drawn) [Example 224, ethyl 2-(((4aR,6S,7S,7aS)-6-(4-aminopyrrolo[2,1-f][1,2,4]triazin-7-yl)-4a-cyano-7-hydroxy-2-oxidotetrahydro-4H-furo[3,2-d][1,3,2]dioxaphosphinin-2-yl)oxy)benzoate] | – | – | – | EC50 [1, 5]: 2830 nM
